Test results from PMC3748964 (Regulatory peptides, 2013).

Molecular target: MT1 melatonin receptor (Oryctolagus cuniculus, UniProt G1U149)
Assay type: cell-based

Sequence of MT1 melatonin receptor (G1U149 1-312): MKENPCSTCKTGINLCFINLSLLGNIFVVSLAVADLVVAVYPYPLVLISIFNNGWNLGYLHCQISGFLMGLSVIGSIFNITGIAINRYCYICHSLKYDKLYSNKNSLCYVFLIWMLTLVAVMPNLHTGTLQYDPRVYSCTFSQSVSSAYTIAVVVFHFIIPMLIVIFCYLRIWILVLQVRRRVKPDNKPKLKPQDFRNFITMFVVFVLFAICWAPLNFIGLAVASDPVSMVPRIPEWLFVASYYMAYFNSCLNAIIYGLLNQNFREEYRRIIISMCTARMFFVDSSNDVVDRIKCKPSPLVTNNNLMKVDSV

## COc1ccc2[nH]cc(CCNC(C)=O)c2c1 [Melatonin]
  EC50: 4 ± 1 nM
